Series [1] in a line: collision cross section (TWIMS, N2) of ion [M+Na]+; higher = larger gas-phase ion cross section. As to conditions: ionization: ESI positive; LC: HILIC, pH 3.0 ammonium formate. On the procedure:
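Reference standards (20-100 uM) were separated by HILIC UPLC (BEH HILIC, 45 °C): acidic pH 3.0 ammonium formate/formic acid for ESI+ and basic pH 9.0 ammonium acetate/ammonia for ESI-. They were analysed on a Synapt G2-Si traveling-wave IMS-QTOF with nitrogen drift gas (WH 30 V; WV 800 m/s in ESI+ and 1000 m/s in ESI-). CCS (TWCCSN2, Å2) was calibrated with Major Mix IMS/TOF and LockCCS leucine enkephalin; inter-day RSD was <1%.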

A short description of series [2]: collision cross section (TWIMS, N2) of ion [M-H]-; higher = larger gas-phase ion cross section. Particulars: ionization: ESI negative; LC: HILIC, pH 9.0 ammonium acetate. On the procedure:
(§1)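 Reference standards (20-100 uM) were separated by HILIC UPLC (BEH HILIC, 45 °C): acidic pH 3.0 ammonium formate/formic acid for ESI+ and basic pH 9.0 ammonium acetate/ammonia for ESI-. They were analysed on a Synapt G2-Si traveling-wave IMS-QTOF with nitrogen drift gas (WH 30 V; WV 800 m/s in ESI+ and 1000 m/s in ESI-).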

The nature of series [3]: retention time on BEH HILIC column (20 min gradient, 0.4 mL/min); higher = later elution. Particulars: LC: HILIC. On the procedure: as §1
Series [4] is described as follows: collision cross section (TWIMS, N2) of ion [M+H]+; higher = larger gas-phase ion cross section. As to conditions: ionization: ESI positive; LC: HILIC, pH 3.0 ammonium formate. On the procedure:
as §1

Setting [5] is: ionization: ESI negative, pH 9.0 ammonium acetate.
The mark [6] stands for this setting: ionization: ESI positive, pH 3.0 ammonium formate.

Structures are written as SMILES.

In the case of `O=C(O)CC(O)c1cccc(O)c1` (stereo unspecified) [3-(3-hydroxyphenyl)-3-hydroxypropanoic acid], the figures for the collision cross section in series [1] and in series [2] were 146.99 Å² and 138.92 Å², respectively.
As to `CC(=O)Oc1ccc(O)cc1` [4-hydroxyphenyl acetate], the “retention time on BEH HILIC column” value came out at 0.67 min in series [3] (setting [5]) and 0.88 min in series [3] (setting [6]). The collision cross section in series [1] turned out to be 138.25 Å²; in series [2], 129.47 Å².
In the case of `NC(=O)NC1NC(=O)NC1=O` (stereo unspecified) [Allantoin], the entries for the “retention time on BEH HILIC column” value in series [3] (setting [5]) and in series [3] (setting [6]) were 1.8 min and 1.56 min, respectively. For the same compound, the collision cross section came to 136.32 Å² in series [1] and 126.16 Å² in series [2].
The like results for `CCCCCCCCCCCCCCCCCCCC(=O)O` [Arachidic acid] were, in that order, 0.73 min, 0.79 min, 198.31 Å² and 193.88 Å².
In the same order, the values of `O=C(O)CCCCCCCC(=O)O` [Azelaic acid] are 0.8 min, 1 min, 145.99 Å² and 139.96 Å².
In the same order, the values of `CCCCCCCCCCCCCCCCCCCCCC(=O)O` [Behenic acid] are 0.73 min, 0.82 min, 204.26 Å² and 197.18 Å².
With `CCCCCCCCCC(=O)O` [Capric acid], the “retention time on BEH HILIC column” value in series [3] (setting [5]) and in series [3] (setting [6]) was 0.75 min in each case. For the same compound, the figures for the collision cross section in series [1] and in series [2] were 143.53 Å² and 151.28 Å², respectively.
In the case of `CCCCCC(=O)O` [Caproic acid], the figures for the “retention time on BEH HILIC column” value in series [3] (setting [5]) and in series [3] (setting [6]) were 0.9 min and 1.25 min, respectively. Besides, the collision cross section stood at 130.13 Å² in series [1] and 129.59 Å² in series [2].
Turning to `O[C@H]1[C@H](O)[C@H](O)OC[C@H]1O` [D-arabinose], the “retention time on BEH HILIC column” value in series [3] (setting [6]) is 2.28 min. The same compound gave a collision cross section in series [1] of 131.78 Å².
As to `OC[C@@H](O)C(O)[C@H](O)CO` [D-arabitol], the “retention time on BEH HILIC column” value came out at 3.16 min in series [3] (setting [5]) and 3.12 min in series [3] (setting [6]). The collision cross section in series [1] is on record as 133.34 Å²; in series [2], 126.54 Å².
Consider `OC[C@H]1O[C@](O)(CO)[C@@H](O)[C@@H]1O` [D-fructose], for which the “retention time on BEH HILIC column” value in series [3] (setting [6]) is 3.49 min. The compound also registered a collision cross section in series [1] of 140.11 Å².
`OC[C@H]1O[C@H](O)[C@H](O)[C@@H](O)[C@H]1O` [D-galactose]: the “retention time on BEH HILIC column” value in series [3] (setting [6]) stood at 4.2 min. In addition, the collision cross section in series [1] came out at 138.53 Å².
In the same order, the values of `OC[C@H]1O[C@@H](O)[C@H](O)[C@@H](O)[C@@H]1O` [D-glucose] are 3.88 min and 143.24 Å².
In the case of `O=C[C@H](O)COP(=O)(O)O` [D-glyceraldehyde 3-phosphate], the “retention time on BEH HILIC column” value in series [3] (setting [5]) is 12.1 min; in series [3] (setting [6]) it was 11.6 min. Moreover, the values for the collision cross section in series [1] and in series [2] were 137.94 Å² and 131.08 Å², respectively.
Consider `OC[C@H]1O[C@@H](O[C@H]2[C@H](O)[C@@H](O)[C@@H](O)O[C@@H]2CO)[C@H](O)[C@@H](O)[C@H]1O` [D-lactose], for which the “retention time on BEH HILIC column” value in series [3] (setting [5]) turned out to be 7.33 min; in series [3] (setting [6]) it was 6.42 min. Besides, the collision cross section in series [1] amounted to 171.29 Å²; in series [2], 172.39 Å².
Turning to `OC[C@H]1O[C@H](O[C@H]2[C@H](O)[C@H](O)[C@@H](O)O[C@@H]2CO)[C@H](O)[C@@H](O)[C@@H]1O` [D-maltose], the “retention time on BEH HILIC column” value came to 7.95 min in series [3] (setting [5]) and 6.68 min in series [3] (setting [6]). In addition, the collision cross section in series [1] is 175.45 Å²; in series [2] it was 171.3 Å².
The like results for `OC[C@H]1O[C@H](O)[C@@H](O)[C@@H](O)[C@@H]1O` [D-mannose] were, in that order, 5.43 min, 3.87 min, 140.11 Å² and 132.14 Å².
For `OC[C@H]1OC(O)[C@H](O)[C@@H]1O` (stereo partly drawn) [D-ribose], the entries for the “retention time on BEH HILIC column” value in series [3] (setting [5]) and in series [3] (setting [6]) were 1.58 min and 1.71 min, respectively. Also, the figures for the collision cross section in series [1] and in series [2] were 131.78 Å² and 121.34 Å², respectively.
`OC[C@@]1(O)OC[C@@H](O)[C@H](O)[C@@H]1O` [D-tagalose]: the “retention time on BEH HILIC column” value in series [3] (setting [6]) came to 3.02 min. In addition, the collision cross section in series [1] turned out to be 136.93 Å².
For `OC[C@@H](O)[C@H](O)[C@@H](O)CO` [D-xylitol], the “retention time on BEH HILIC column” value in series [3] (setting [5]) and in series [3] (setting [6]) was 3.16 min each time. In addition, the collision cross section in series [1] stood at 133.34 Å²; in series [2] it was 128.01 Å².
On to `OC1OC[C@@H](O)[C@H](O)[C@H]1O` (stereo partly drawn) [D-xylose], for which the “retention time on BEH HILIC column” value in series [3] (setting [6]) amounted to 2 min. Further, in series [1], the collision cross section was found to be 131.78 Å².
Regarding `CCOC(=O)CC(C)C(=O)OCC` (stereo unspecified) [Diethyl methylsuccinate], the “retention time on BEH HILIC column” value is 0.95 min in series [3] (setting [5]) and 0.75 min in series [3] (setting [6]). The figures for the collision cross section in series [1] and in series [2] were 151.23 Å² and 139.96 Å², respectively.
As to `OC[C@@H](O)[C@@H](O)CO` [Erythritol], in series [3] (setting [6]), the “retention time on BEH HILIC column” value is 2.08 min. The collision cross section in series [1] is 128.38 Å².
For `O=C(CO)[C@@H](O)[C@H](O)[C@H](O)COP(=O)(O)O` [Fructose 6-phospahte], the “retention time on BEH HILIC column” value is 11.9 min in series [3] (setting [5]) and 8.86 min in series [3] (setting [6]). In addition, the collision cross section in series [1] worked out at 151.18 Å²; in series [2], 146.38 Å².
Regarding `OC[C@@H](O)[C@H](O)[C@H](O)[C@@H](O)CO` [Galactitol], the “retention time on BEH HILIC column” value in series [3] (setting [5]) was 4.84 min; in series [3] (setting [6]) it was 5.56 min. The collision cross section in series [1] is recorded as 140.03 Å²; in series [2], 133.44 Å².
`O=P(O)(O)OC[C@H]1OC(O)[C@H](O)[C@@H](O)[C@@H]1O` (stereo partly specified) [Glucose 6-phosphate]: the “retention time on BEH HILIC column” value in series [3] (setting [5]) stood at 12.1 min; in series [3] (setting [6]), 9.32 min. In addition, the collision cross section in series [1] stood at 154.07 Å²; in series [2], 148.86 Å².
The like results for `CCCCCCC(=O)O` [Heptanoic acid] were, in that order, 0.9 min, 0.77 min, 134.35 Å² and 135.55 Å².
Take `O=C[C@H](O)[C@H](O)[C@H](O)[C@@H](O)CO` [L-talose]: in series [3] (setting [6]), the “retention time on BEH HILIC column” value was 3.25 min. Moreover, the collision cross section in series [1] was 135.32 Å².
For the compound `CCCCC/C=C\C/C=C\CCCCCCCC(=O)O` [Linoleic acid], the “retention time on BEH HILIC column” value was 0.73 min in series [3] (setting [5]) and 0.75 min in series [3] (setting [6]). Besides, the collision cross section in series [1] is 174.95 Å²; in series [2] it was 179.98 Å².
The like results for `OC[C@@H](O)[C@@H](O[C@H]1O[C@H](CO)[C@@H](O)[C@H](O)[C@H]1O)[C@H](O)[C@@H](O)CO` [Maltitol] were, in that order, 6.83 min, 6.7 min, 174.13 Å² and 171.26 Å².
As to `OC[C@@H](O)[C@@H](O)[C@H](O)[C@H](O)CO` [Mannitol], the “retention time on BEH HILIC column” value in series [3] (setting [5]) came to 4.75 min; in series [3] (setting [6]) it was 4.8 min. Moreover, the collision cross section in series [1] is given as 140.03 Å²; in series [2] it was 134.82 Å².
Regarding `O=C(O)C(CO)c1ccccc1` (stereo unspecified) [Tropate], the “retention time on BEH HILIC column” value in series [3] (setting [6]) came out at 1.08 min. The same compound gave a collision cross section in series [1] of 140.74 Å².
With `Cc1c(C)c2c(c(C)c1O)CC[C@@](C)(CCC[C@H](C)CCC[C@H](C)CCCC(C)C)O2` [a-tocopherol], the “retention time on BEH HILIC column” value in series [3] (setting [5]) and in series [3] (setting [6]) was 0.73 min each time. Besides, the collision cross section in series [4] amounted to 216.53 Å²; in series [2], 212.59 Å².
Turning to `Nc1ncnc2c1ncn2[C@@H]1O[C@@H]2COP(=O)(O)O[C@H]2[C@H]1O` [cAMP], the “retention time on BEH HILIC column” value in series [3] (setting [5]) worked out at 6.8 min; in series [3] (setting [6]), 6.85 min. Also, the collision cross section in series [4] turned out to be 174.12 Å²; in series [2], 171.56 Å².

The values are drawn from the supplement of paper PMC11127212.
